Test results published in ChEMBL document CHEMBL6121000, “Corosolic acid and its derivatives targeting MCCC1 against insulin resistance and their hypoglycemic effect on type 2 diabetic mice” (Eur J Med Chem, 2025).
Converted amounts (≈) assume the structure as drawn. The source made the active and inactive calls. The rule behind the calls is not given here.

Key:
[1] = Cytotoxicity against human HepG2 cells assessed as cell viability at 80 uM incubated for 24 hrs by CCK8 assay relative to control; assay type: toxicity, cell-based; conditions: HepG2 cells, read-out: Activity
[2] = Toxicity in Sprague-Dawley rat assessed as reduction in number of crypts in colon tissue at 20 mg/kg, po for 5 days; assay type: organism-based; conditions: in vivo, 120 h, time 5 day
[3] = test system: Mus musculus; assay: Hypoglycemic activity in HFD-fed STZ-induced diabetic C57BL/6J mouse model assessed as reversal of diabetes-reduced MCCC1 level in liver at 10 to 20 mg/kg, po administered everyday for 3 weeks by Western blot analysis; assay type: functional, organism-based; conditions: dose 10-20 mg/kg
[4] = test system: Mus musculus; assay: Hypoglycemic activity in HFD-fed STZ-induced diabetic C57BL/6J mouse model assessed as increase in AKT phosphorylation in liver at 10 to 20 mg/kg, po administered everyday for 3 weeks by Western blot analysis; assay type: functional, organism-based; conditions: dose 10-20 mg/kg
[5] = test system: HepG2; assay: Lipid lowering activity in human HepG2 cells assessed as reduction in FFA-induced triglyceride content at 20 uM preincubated for 1 hr followed by FFA treatment for 24 hrs; assay type: functional, cell-based; conditions: time 25.0 hrs
[6] = test system: HepG2; assay: Inhibition of insulin resistance in human HepG2 cells assessed as restoration of GlcN-reduced MCCC1 level at 40 uM preincubated for 1 hr followed by GlcN treatment for 18 hrs in presence of VPA by Western blot analysis; assay type: functional, cell-based; conditions: time 19.0 hrs
[7] = Toxicity in Sprague-Dawley rat assessed as damage in colon at 20 mg/kg, po for 5 days; assay type: organism-based; conditions: in vivo, 120 h, time 5 day
[8] = test system: Mus musculus; assay: Hypoglycemic activity in HFD-fed STZ-induced diabetic C57BL/6J mouse model assessed as improvement in triglyceride level in liver at 10 to 20 mg/kg, po administered everyday for 3 weeks; assay type: functional, organism-based; conditions: dose 10-20 mg/kg
[9] = test system: HepG2; assay: Inhibition of insulin resistance in human HepG2 cells assessed as decrease in GlcN-induced glucose production at 20 uM preincubated for 1 hr followed by GlcN treatment for 18 hrs and subsequent insulin stimulation for 20 mins; assay type: functional, cell-based; conditions: time 19.33 hrs
[10] = test system: Mus musculus; assay: Hypoglycemic activity in 12 hr-fasted STZ-induced diabetic C57BL/6J mouse model assessed as decrease in AUC of blood glucose level at 20 mg/kg, po measured upto 120 mins by insulin tolerance test relative to control; assay type: functional; set-up: scale not given: the % may be the effect or the level left; conditions: 2 h
[11] = test system: HepG2; assay: Induction of glucose uptake in human HepG2 cells assessed as increase in GlcN-reduced GSK-3beta phosphorylation at 2.5 to 20 uM preincubated for 1 hr followed by GlcN addition measured after 24 hrs by Western blot analysis; assay type: functional, cell-based; conditions: dose 2.5-20 µM, time 25.0 hrs
[12] = Toxicity in Sprague-Dawley rat assessed as damage in lungs at 20 mg/kg, po for 5 days; assay type: organism-based; conditions: in vivo, 120 h, time 5 day
[13] = test system: Mus musculus; assay: Hypoglycemic activity in HFD-fed STZ-induced diabetic C57BL/6J mouse model assessed as improvement in weight loss at 10 to 20 mg/kg, po administered everyday for 3 weeks; assay type: functional, organism-based; conditions: dose 10-20 mg/kg
[14] = molecular target: T1, Methylcrotonoyl-CoA carboxylase subunit alpha, mitochondrial (Homo sapiens) (UniProt Q96RQ3); assay: Binding affinity to MCCC1 in human HepG2 cells assessed as thermal stability at 40 uM incubated for 1 hr followed by heat exposure for 3 mins by CETSA; assay type: cell-based
T1 sequence (whole entry): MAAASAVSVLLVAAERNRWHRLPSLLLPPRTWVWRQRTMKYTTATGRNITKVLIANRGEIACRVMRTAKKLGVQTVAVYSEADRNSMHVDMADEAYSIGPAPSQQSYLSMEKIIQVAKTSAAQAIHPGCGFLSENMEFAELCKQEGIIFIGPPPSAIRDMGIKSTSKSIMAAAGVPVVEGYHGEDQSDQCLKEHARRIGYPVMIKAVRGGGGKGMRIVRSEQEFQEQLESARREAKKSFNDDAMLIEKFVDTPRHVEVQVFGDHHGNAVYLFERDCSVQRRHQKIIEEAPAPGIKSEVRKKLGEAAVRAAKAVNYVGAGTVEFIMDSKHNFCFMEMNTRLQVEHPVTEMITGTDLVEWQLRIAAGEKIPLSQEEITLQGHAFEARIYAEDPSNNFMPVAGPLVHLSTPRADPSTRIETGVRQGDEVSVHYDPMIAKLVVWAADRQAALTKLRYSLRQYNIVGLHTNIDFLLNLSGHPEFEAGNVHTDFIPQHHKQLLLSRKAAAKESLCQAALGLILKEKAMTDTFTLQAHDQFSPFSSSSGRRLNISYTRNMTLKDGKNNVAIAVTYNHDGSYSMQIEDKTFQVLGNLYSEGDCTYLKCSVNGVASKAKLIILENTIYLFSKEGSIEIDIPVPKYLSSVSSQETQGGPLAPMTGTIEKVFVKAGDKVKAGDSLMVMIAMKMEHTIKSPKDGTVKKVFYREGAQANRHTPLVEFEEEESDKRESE

[15] = test system: HepG2; assay: Inhibition of insulin resistance in human HepG2 cells assessed as restoration of GlcN-reduced MCCC1 level at 40 uM preincubated for 1 hr followed by GlcN treatment for 18 hrs by Western blot analysis; assay type: functional, cell-based; conditions: time 19.0 hrs
[16] = Toxicity in Sprague-Dawley rat assessed as damage in liver at 20 mg/kg, po for 5 days; assay type: organism-based; conditions: in vivo, 120 h, time 5 day
[17] = Toxicity in Sprague-Dawley rat assessed as inflammatory cell infiltration in colon tissue at 20 mg/kg, po for 5 days; assay type: organism-based; conditions: in vivo, 120 h, time 5 day
[18] = test system: HepG2; assay: Inhibition of insulin resistance-associated inflammation in human HepG2 cells assessed as increase in GlcN-reduced I-kaapaB-alpha level at 2.5 to 20 uM preincubated for 1 hr followed by GlcN addition measured after 24 hrs by Western blot analysis; assay type: functional, cell-based; conditions: dose 2.5-20 µM
[19] = Toxicity in Sprague-Dawley rat assessed as damage in heart at 20 mg/kg, po for 5 days; assay type: organism-based; conditions: in vivo, 120 h, time 5 day
[20] = test system: Mus musculus; assay: Hypoglycemic activity in HFD-fed STZ-induced diabetic C57BL/6J mouse model assessed as increase in hepatic glycogen synthesis at 10 to 20 mg/kg, po administered everyday for 3 weeks; assay type: functional, organism-based; conditions: dose 10-20 mg/kg
[21] = test system: HepG2; assay: Lipid lowering activity in human HepG2 cells assessed as inhibition of FFA-induced triglyceride content at 20 uM preincubated for 1 hr followed by FFA treatment for 24 hrs relative to control; assay type: functional
[22] = test system: HepG2; assay: Inhibition of insulin resistance in human HepG2 cells assessed as decrease in GlcN-induced glucose production at 40 uM preincubated for 1 hr followed by GlcN treatment for 18 hrs and subsequent insulin stimulation for 20 mins in presence of VPA by glucose oxidase-peroxidase assay; assay type: functional, cell-based; conditions: time 19.33 hrs
[23] = test system: Mus musculus; assay: Hypoglycemic activity in 12 hr-fasted STZ-induced diabetic C57BL/6J mouse model assessed as decrease in blood glucose level at 20 mg/kg, po measured for 30 to 90 mins by insulin tolerance test; assay type: functional, organism-based; conditions: time 30-90 min
[24] = test system: Mus musculus; assay: Hypoglycemic activity in HFD-fed STZ-induced diabetic C57BL/6J mouse model assessed as increase in GLUT4 level in liver at 10 to 20 mg/kg, po administered everyday for 3 weeks by Western blot analysis; assay type: functional, organism-based; conditions: dose 10-20 mg/kg
[25] = test system: HepG2; assay: Induction of glucose uptake in human HepG2 cells assessed as increase in GlcN-reduced GLUT4 level at 2.5 to 20 uM preincubated for 1 hr followed by GlcN addition measured after 24 hrs by Western blot analysis; assay type: functional, cell-based; conditions: dose 2.5-20 µM, time 25.0 hrs
[26] = Toxicity in Sprague-Dawley rat assessed as damage in spleen at 20 mg/kg, po for 5 days; assay type: organism-based; conditions: in vivo, 120 h, time 5 day
[27] = molecular target: T1, Methylcrotonoyl-CoA carboxylase subunit alpha, mitochondrial (Homo sapiens); assay: Binding affinity to MCCC1 in human HepG2 cells assessed as reduction in pronase-mediated MCCC1 degradation at 40 to 80 uM preincubated for 1 hr followed by pronase addition measured after 10 mins by DARTS assay; assay type: cell-based; conditions: dose 40-80 µM, time 70.0 min
[28] = Solubility of compound in PBS; assay type: physicochemical
[29] = test system: Mus musculus; assay: Hypoglycemic activity in HFD-fed STZ-induced diabetic C57BL/6J mouse model assessed as reduction in glucose production at 10 to 20 mg/kg, po administered everyday for 3 weeks; assay type: functional, organism-based; conditions: dose 10-20 mg/kg
[30] = test system: HepG2; assay: Induction of glucose uptake in human HepG2 cells assessed as increase in GlcN-reduced AKT phosphorylation at 40 uM preincubated for 1 hr followed by GlcN addition measured after 18 hrs in presence of VPA by Western blot analysis; assay type: functional, cell-based; conditions: time 19.0 hrs
[31] = test system: HepG2; assay: Induction of glucose uptake in human HepG2 cells assessed as increase in GlcN-reduced AKT phosphorylation at 2.5 to 20 uM preincubated for 1 hr followed by GlcN addition measured after 24 hrs by Western blot analysis; assay type: functional, cell-based; conditions: dose 2.5-20 µM, time 25.0 hrs
[32] = test system: Mus musculus; assay: Hypoglycemic activity in HFD-fed STZ-induced diabetic C57BL/6J mouse model assessed as decrease in blood glucose level at 10 to 20 mg/kg, po administered everyday for 3 weeks; assay type: functional, organism-based; conditions: dose 10-20 mg/kg
[33] = test system: Mus musculus; assay: Hypoglycemic activity in HFD-fed STZ-induced diabetic C57BL/6J mouse model assessed as improvement in total cholesterol level in liver at 10 to 20 mg/kg, po administered everyday for 3 weeks; assay type: functional, organism-based; conditions: dose 10-20 mg/kg
[34] = test system: HEK293; assay: Cytotoxicity against HEK293 cells assessed as cell viability at 40 to 320 uM incubated for 24 hrs by CCK8 assay relative to control; assay type: toxicity, cell-based; conditions: human, hek293, 24 h, dose 40-320 µM

Activity [14]: Active
Activity [27]: Active
solubility [28]: 3.98 mM (≈ 2110 µg/mL)
SMILES: C[C@H]1[C@H](C)CC[C@]2(C(=O)NCC(=O)O)CC[C@]3(C)C(=CC[C@@H]4[C@@]5(C)C[C@@H](O)[C@H](O)C(C)(C)[C@@H]5CC[C@]43C)[C@H]12
viability at 24 h, 80 µM [1]: > 80%
Activity [2]: Non-toxic
Activity [3]: Active
Activity [4]: Active
Activity [5]: Active
inhibition [6]: inactive
Activity [7]: Non-toxic
Activity [8]: Active
inhibition [9]: Active
Activity [10]: 19.4%
Activity [11]: Active
Activity [12]: Non-toxic
Activity [13]: Active
inhibition [15]: Active
Activity [16]: Non-toxic
Activity [17]: Non-toxic
inhibition [18]: Active
Activity [19]: Non-toxic
Activity [20]: Active
inhibition at 20 µM [21]: 59.5%
inhibition [22]: inactive
Activity [23]: Active
Activity [24]: Active
Activity [25]: Active
Activity [26]: Non-toxic
Activity [29]: Active
Activity [30]: inactive
Activity [31]: Active
Activity [32]: Active; Activity Similar To Metformin At 200 Mg/Kg
Activity [33]: Active
Activity [34]: Non-toxic
